From US12661353B2, “SPT5 inhibitors and uses thereof” (Yeda Research and Development Co. Ltd., priority 2020, dated 2026)

Assays:
wild type (Q7) Htt = assay: Newly synthesized Htt transcripts, 4sU metabolic labeling, Q7 cells; format: cell-based, mouse; details: 4sU for 2 hours
Method: Metabolic labeling of newly synthesized RNA with 4-thiouridine (4sU)—STHdh Q111 and STHdh Q7 cells (collected from 10 cm dishes) were treated for 30 minutes with DMSO (vehicle control) or the tested SPI compound (e.g., SPJ-21). Following, 4-thiouridine (4sU, 150 μM final concentration) was added for additional 2 hours. The labeling was terminated by removing the 4sU-containing medium and washing the cells 3 times with phosphate-buffered saline (PBS). Total RNA was extracted as described above. 10 μg of RNA were biotinylated using biotin-HPDP (1:5; A8008, APExBIO) for 1.5 hours at room temperature and the biotinylated RNA was purified using chloroform and isopropanol extraction and dissolved in DEPC water. Following, the biotinylated RNA was captured by incubation with Streptavidin-coated magnetic beads (NEB, S1420S) for 30 minutes at room temperature in constant rotation. Bound RNA was eluted with 100 μl of 0.1 M fresh DTT. […]
Huntington's disease (HD) is an inherited genetic disorder caused by expansion trinucleotide CAG repeats (36 and higher) encoding glutamine (Q) in the huntingtin (Htt) gene. […] The two cell lines were treated for 48 hours with the identified SPIs and following the levels of Htt mRNA were determined. […] Moreover, the levels measured from the second exon relative to the first were fairly higher in Q7 compared to Q111 and this small difference was kept all along the gene. […]

HSPA6 and HSPA1A = assay: mRNA of heat shock genes HSPA6 and HSPA1A, HeLa, RT-qPCR; format: cell-based, human
Method: RNA analysis—Total RNA was extracted using Tri-reagent (Bio-Lab Chemicals) and Direct-Zol™ RNA MiniPrep kit (Zymo Research). Following, cDNA was synthesized from […] of total RNA using a High-Capacity cDNA Reverse Transcription Kit (ABI, Thermo Fisher Scientific). cDNA samples were analyzed by quantitative PCR (qPCR) in a ViiA 7 Real-Time PCR System using Fast qPCRBIO SYBR Green Mix (PCR Biosystems).
A major limitation of KD and KO studies is the prolonged deficiency of the target protein. Small molecule inhibitors on the other hand, inactivate their target shortly following their application. […] Reads were aligned to the human genome and normalized expression of each gene was determined. Subsequently, the following ratios were calculated: TNFα vs. control, which describes the response to TNFα; SPI-21 vs. control, which describes the effect of SPI-21 on gene expression under basal conditions; and SPI-21+TNFα vs. TNFα, which describes the effect of SPI-21 under TNFα-induced conditions. […] To test this possibility, cells were treated with SPI-21 for 2 and 24 hours and the levels of the heat shock genes HSPA6 and HSPA1A were determined by RT-qPCR. […] To further test the idea of kinetically distinct Spt5 target genes, the global effect of long-term SPI-21 treatment (24 hours) was determined by RNA-seq and the affected genes between the short and long-term treatments were compared. […]

Compound: COc1ccc(C=CC(=O)c2cc(O)ccc2O)cc1 [SPI-21]
- levels of newly synthesized Q7 Htt (wild type (Q7) Htt): not Q7 Htt were diminished
- levels of heat shock genes HSPA6 and HSPA1A (HSPA6 and HSPA1A; 2 hours treatment): strongly up-regulated
- extent of activation of HSPA6 and HSPA1A (HSPA6 and HSPA1A; 24 hours treatment): substantially smaller
